Results published in ChEMBL document CHEMBL1150067, “Anti-tumor-promoting activities of afromosin and soyasaponin I isolated from Wistaria brachybotrys” (1992).

What was measured:
Format in all cases: functional
[1] = tested on: Mus musculus; test: Inhibition of DMBA-induced/TPA-promoted carcinogenesis in mouse assessed as number of skin papillomas per mouse at 85 nmol administered twice weekly after 1 week of initiation measured after 20 weeks by two stage carcinogenesis test; set-up: scale not given: the % may be the effect or the level left
[2] = species: Mus musculus; test: Inhibition of 4NQO-induced carcinogenesis in mouse assessed as total number of tumors at 1.25 mg after 25 weeks by two stage carcinogenesis test
[3] = species: Mus musculus; test: Inhibition of 4NQO-induced carcinogenesis in mouse assessed as number of tumors per mouse at 1.25 mg after 25 weeks by two stage carcinogenesis test
[4] = species: Mus musculus; test: Inhibition of 4NQO-induced carcinogenesis in mouse assessed as reduction of mouse with tumor at 1.25 mg after 25 weeks by two stage carcinogenesis test; set-up: scale not given: the % may be the effect or the level left

C[C@@H]1O[C@@H](O[C@H]2[C@H](O[C@H]3[C@H](O[C@H]4CC[C@@]5(C)[C@@H](CC[C@]6(C)[C@@H]5CC=C5[C@@H]7CC(C)(C)C[C@@H](O)[C@]7(C)CC[C@]56C)[C@@]4(C)CO)O[C@H](C(=O)O)[C@@H](O)[C@@H]3O)O[C@H](CO)[C@H](O)[C@@H]2O)[C@H](O)[C@H](O)[C@H]1O [SOYASAPONIN I]
Activity [1]: 40%

COc1ccc(-c2coc3cc(O)c(OC)cc3c2=O)cc1 [CASTANIN]
Activity [1]: 40%
Activity [2]: 14
Activity [3]: 0.93
Activity [4]: 60%
